From patent US20230181555A1, “STABLE AND PRESERVED PHARMACEUTICAL COMPOSITIONS OF BILASTINE” (priority 2019, published 2023)

Tests used:
[1] = Solubility of bilastine in water; assay type: physicochemical; conditions: pH-dependent
[2] = Solubility of bilastine and mometasone furoate in formulations with HPBCD; assay type: physicochemical; conditions: HPBCD 75 mg/mL (7.5 wt %); FIG. 1B
Protocol: Six different formulations (with mometasone furoate monohydrate and the rest of excipients as defined in example 7) were prepared (see table below). The six formulations had amounts of HPBCD from 12.5 to 100 mg/mL. Then, in each of them an excessive amount of bilastine was added and the maximum solubility was tested. Furthermore, the percentage of the mometasone furoate dissolved was also tested. All the measurements were conducted at time 0.

solubility in water [1]	solubility of mometasone furoate [2]	SMILES
only slightly soluble		CCOCCn1c(C2CCN(CCc3ccc(C(C)(C)C(=O)O)cc3)CC2)nc2ccccc21 [Bilastine, 2-[4-(2-{4-[1-(2-ethoxyethyl)-1H-benzimidazol-2-yl]-1-piperidinyl}ethyl)phenyl]-2-methylpropanoic acid]
	around 4 mg/mL	C[C@@H]1C[C@H]2[C@@H]3CCC4=CC(=O)C=C[C@]4(C)[C@@]3(Cl)[C@@H](O)C[C@]2(C)[C@@]1(OC(=O)c1ccco1)C(=O)CCl.O [Mometasone Furoate monohydrate, Mometasone furoate monohydrate]
